Data on two molecules can be found in patent US20220053796A1, “COMPOSITION FOR SUPPORTING ANIMAL WITH CANCER” (MARS, INCORPORATED, priority 2018, published 2022).

What all share (type): cell-based, canine
The test system of one test is HMPOS. The experiment in a line: ATPlite proliferation assay. To be noted: Canis lupus familiaris, 72 h. Here is the method: (§1) The different cancer cell lines were plated at the optimal number of cells per well in 90 μL of appropriate medium/well in flat-bottom microtitration 96-well plates. Plates were incubated at 37° C. for 24 hours before treatment in drug free culture medium. After a first dilution process, 10 μl of the test substances (single) were added on plate containing cells 24h after plating. Tumor cell lines were incubated for 72 h at 37° C. under 5% CO2 with 9 concentrations of each natural extract in 1:2 dilution steps. Top dose was 100 μg/ml for each plant extract and 1 μM for doxorubicin. Each concentration was tested in triplicates. Dilutions of each test substance as well as distribution to plates containing cells were performed manually. At least 2 independent experiments were performed for each plant extract. Control cells were treated with vehicles alone. […]
(§2) At the end of treatments, the cytotoxic activity of tested substances was evaluated by ATP-Lite assay (Ref. 6016949, Perkin-Elmer, and Batch 69-12172). […] This ATP level is quantified by the luminescence emitted by the firefly luciferase, through an ATP-dependent reaction. […] After, the plate was left for ten minutes in the dark and luminescence was measured as LV (Luminescence Value).
Chou-Tallalay CI corresponds to the combination indexes calculated using the appropriate algorithms. […]
(ATP-based viability assays read luminescence as a measure of living cells.)

For the next test, the system named is CF41.Mg cell line. The experiment in a line: ATPlite proliferation assay. Particulars: Canis lupus familiaris, 72 h. Here is the method: as §1, §2
Another test has as its system CMT-12 cancer cell line. The experiment in a line: MTT proliferation assay. Particulars: Canis lupus familiaris. Here is the method: (§3) Cells were plated at a density of 4×10^3 cells per well on 96-well tissue culture-treated flat bottom plates and incubated overnight in complete medium. Cells were treated the following day with DMSO control or extract using a twofold serial dilution for 8 final concentrations ranging from […] to 100 μg mL-1 for 48 h to assess all extracts for potential effectiveness at reducing cellular proliferation. To quantify cellular proliferation, MTT dye assays were performed by adding 30 μL of MTT dye (5 mg mL-1 in phosphate-buffered saline solution) to each well and incubating at 37° C. for 1 h. Media were then aspirated and the cells were solubilized in 200 μL of isopropanol. The optical density of each well was analyzed on a spectrophotometric plate reader (Epoch; Biotek, Winooski, Vt., USA) at a wavelength of 570 nm.
(§4) Synergy between extracts was examined using combinations of two extracts at six concentrations: 0.8, 1.7, 3.1, 6.3, 12.5, or 25 μg mL-1. The percent proliferating cells of control for each treatment was pooled from all experiments and is reported as mean f standard error of the mean.
(§5) Raw data from proliferation assays (optical density of each well) were normalized to the vehicle alone treatment for individual assays, considered to represent 100% proliferating cells (single or combined treatment). The % proliferating cells was then averaged across each replicate. The IC50 for each extract was then calculated across experiments by Probit analysis. The compound interactions were calculated by multiple drug effect analysis using CalcuSyn software (v.2.11; Biosoft, Cambridge, GB, United Kingdom).
For orientation: Tetrazolium dyes change colour on reduction, which living cells bring about.

The test system of another test is D17 cancer cell line. The experiment in a line: MTT proliferation assay. To be noted: Canis lupus familiaris. Here is the method: as §3, §4, §5
Another test relates to C2 cancer cell line. Kind of test: MTT proliferation assay. Here is the method:
as §3, §4, §5

The mark [1] stands for this setting: read-out: chemotherapy IC50 (mass concentration in brackets).

Where a name gives a salt, the structure may show the parent alone. Read-outs that look alike come from different tables or passages of the source.

As for `COc1cccc2c1C(=O)c1c(O)c3c(c(O)c1C2=O)C[C@@](O)(C(=O)CO)C[C@@H]3O[C@H]1C[C@H](N)[C@H](O)[C@H](C)O1` [doxorubicin hydrochloride], the IC50 in the test with HMPOS is 0.011 µM; in the test with CF41.Mg cell line it was 0.375 ± 0.361 µM; in the test with CMT-12 cancer cell line (read-out: chemotherapy IC50), 0.3 µM; in the test on CMT-12 cancer cell line (setting [1]) it was 0.163 µg/mL; with D17 cancer cell line (read-out: chemotherapy IC50) it was 0.5 µM; in the test on D17 cancer cell line (setting [1]), 0.272 µg/mL.
As to toceranib phosphate, in the test on C2 cancer cell line, the “chemotherapy IC50 (mass concentration in brackets)” value is given as “nM (6.2 ng mL^−1)”. Further, the IC50 with C2 cancer cell line (read-out: chemotherapy IC50) is 0.0125 µM.
